According to patent EP1757607A1, “N5-substituted benzo¬2,3|azepino¬4,5-b|indol-6-ones for treating tropical diseases” (Molisa GmbH, priority 2005, dated 2007):

Tests used:
[1] = target: T1, Trypanothione Synthetase TS (Crithidia fasciculata, UniProt O60993); assay: Inhibition of Trypanothione Synthetase (Table 1); format: biochemical; conditions: compound concentration not stated for Table 1
T1 sequence (O60993 1-652): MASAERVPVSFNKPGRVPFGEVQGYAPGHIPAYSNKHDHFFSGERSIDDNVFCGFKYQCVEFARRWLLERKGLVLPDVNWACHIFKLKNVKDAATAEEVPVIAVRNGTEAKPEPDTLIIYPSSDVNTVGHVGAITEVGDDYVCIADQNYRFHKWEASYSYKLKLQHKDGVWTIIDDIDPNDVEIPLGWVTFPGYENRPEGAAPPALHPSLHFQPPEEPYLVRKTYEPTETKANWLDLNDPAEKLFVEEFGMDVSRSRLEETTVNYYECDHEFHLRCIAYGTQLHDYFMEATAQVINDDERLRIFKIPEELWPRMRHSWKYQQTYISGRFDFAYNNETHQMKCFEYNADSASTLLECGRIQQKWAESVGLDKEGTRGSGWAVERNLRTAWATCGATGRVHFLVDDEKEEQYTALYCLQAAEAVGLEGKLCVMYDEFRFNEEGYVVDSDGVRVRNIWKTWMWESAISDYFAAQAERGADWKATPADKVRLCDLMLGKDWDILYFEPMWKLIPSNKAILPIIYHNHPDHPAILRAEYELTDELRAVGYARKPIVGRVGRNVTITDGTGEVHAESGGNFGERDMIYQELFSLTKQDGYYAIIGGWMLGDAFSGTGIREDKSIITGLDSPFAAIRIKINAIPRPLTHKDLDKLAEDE

TryS = target: T2, TryS (Crithidia fasciculata, UniProt O60993); assay: Screening of potential inhibitors against TryS (malachite green, A650); format: biochemical; conditions: 10 µM compound; 90.75 nM TryS, 0.675 mM GSH, 6.75 mM spermidine, 45 µM ATP, room temperature, 60 min; triplicates; read-out: inhibitory effect (%)
T2 sequence (O60993 1-652): T1 sequence (O60993 1-652)
Description: The compounds were screened against TryS at 10 µM compound concentration. The inhibitory effect of each compound on TryS was measured in triplicates. Obvious outliers from the triplicates were removed. If the standard deviation of the two remaining inhibition values exceeded 25 % the measurement was repeated.
The screen was performed under the following conditions: 90.75 nM TryS was incubated with 0.675 mM GSH, 6.75 mM spermidine, 45 µM ATP, and 10 µM compound in a total volume of 80 µl 100 mM HEPES pH 7.5, 10 mM MgSO4, 0.1 mM EDTA, 5 mM DTT at room temperature for 60 min. Reaction was stopped by addition of 10 µl malachitgreen reagent. A650 was measured after 20 min. No compound was present in the positive controls (C+). Neither GSH nor spermidine was present in the negative controls (C-).

Molecule | Inhibition of TS % [1] | inhibition at 10 µM (TryS)
O=C(CN1C(=O)Cc2c([nH]c3ccc(Br)cc23)-c2ccccc21)N1CCNCC1 [Compound 25, N-[2-(9-Bromo-6-oxo-6,7-dihydro-5H-benzo[2,3]azepino[4,5-b]indol-5-yl)-acetyl]-piperazine] | 76.5% | 
2-(9-Bromo-6-oxo-6,7-dihydro-5H-benzo[2,3]azepino[4,5-b]indol-5-yl)-acetic acid hydrazide [Compound 26] | 0% | 
NCCNC(=O)CN1C(=O)Cc2c([nH]c3ccc(Br)cc23)-c2ccccc21 [Compound 17, N-(2-Amino-1-yl-ethyl)-2-(9-bromo-6-oxo-6,7-dihydro-5H-benzo[2,3]azepino[4,5-b]indol-5-yl)-acetamide] | 78.6% | 96.8%
CNCCNC(=O)CN1C(=O)Cc2c([nH]c3ccccc23)-c2ccccc21 [Compound 23, N-(2-Methylamino-1-yl-ethyl)-2-(6-oxo-6,7-dihydro-5H-benzo[2,3]azepino[4,5-b]indol-5-yl)-acetamide] | 0% | 
NCCCNCCCCNC(=O)CN1C(=O)Cc2c([nH]c3ccc(Br)cc23)-c2ccccc21 [Compound 20, N-(4-(3-Amino-1-yl-propylamino)-1-yl-butyl)-2-(9-bromo-6-oxo-6,7-dihydro-5H-benzo[2,3]azepino[4,5-b]indol-5-yl)-acetamide] | 24.6% | 47.6%
CNCCNC(=O)CN1C(=O)Cc2c([nH]c3ccc(Br)cc23)-c2ccccc21 [Compound 13, 2-(9-Bromo-6-oxo-6,7-dihydro-5H-benzo[2,3]azepino[4,5-b]indol-5-yl)-N-(2-methylamino-1-yl-ethyl)-acetamide] | 92.4% | 
NCCCNC(=O)CN1C(=O)Cc2c([nH]c3ccc(Br)cc23)-c2ccccc21 [Compound 18, N-(3-Amino-1-yl-propyl)-2-(9-bromo-6-oxo-6,7-dihydro-5H-benzo[2,3]azepino[4,5-b]indol-5-yl)-acetamide] | 37.8% | 85.1%
NCCCCNC(=O)CN1C(=O)Cc2c([nH]c3ccc(Br)cc23)-c2ccccc21 [Compound 19, N-(4-Amino-1-yl-butyl)-2-(9-bromo-6-oxo-6,7-dihydro-5H-benzo[2,3]azepino[4,5-b]indol-5-yl)-acetamide] | 16.2% | 54.3%
NCCCCNCCCNC(=O)CN1C(=O)Cc2c([nH]c3ccc(Br)cc23)-c2ccccc21 [Compound 21, N-(3-(4-Amino-1-yl-butylamino)-1-yl-propyl)-2-(9-bromo-6-oxo-6,7-dihydro-5H-benzo[2,3]azepino[4,5-b]indol-5-yl)-acetamide] | 22.5% | 47.6%
CNCCNC(=O)CN1C(=O)Cc2c([nH]c3ccc(C)cc23)-c2ccccc21 [Compound 24, 2-(9-Methyl-6-oxo-6,7-dihydro-5H-benzo[2,3]azepino[4,5-b]indol-5-yl)-N-(2-methylamino-1-yl-ethyl)-acetamide] | 20.5% | 
CNCCNC(=O)CN1C(=O)Cc2c([nH]c3ccc(C#N)cc23)-c2ccccc21 [Compound 22, 2-(9-Cyano-6-oxo-6,7-dihydro-5H-benzo[2,3]azepino[4,5-b]indol-5-yl)-N-(2-methylamino-1-yl-ethyl)-acetamide] | 51.7% | 
